Entries after “also recorded” stand apart in the source; their conditions may differ.
Key:
VT500G canola plants = assay: Growth impediment of canola seedlings after pre-seeding glyphosate treatment of potting mix; assay type: in vivo, Brassica napus
Experimental: (§1) Canola plants, cultivar Westar and the Roundup®-resistant transgenic line VT500G of Brassica napus, were used. Plants were grown in a phytotron at 22° C. with a light/dark photoperiod of 16 h/8 h (light intensity 120 μmol m^−2 s^−1).
(§2) Potting mix consisting of fine peat moss, vermiculite, gypsum, dolomitic limestone and starter nutrient (Sunshine Mix #3; pH 5.8-6.2; Sun Gro Horticulture Canada Ltd., Canada) in 13 cm diameter plastic pots was inoculated with P. brassicae spores. The P. brassicae infested potting soil was then irrigated with 350 ml of water or glyphosate (Roundup®, Monsanto Canada Inc.) solution to provide an application rate of 0 mg, 143, 286, or 572 mg of glyphosate per 13 cm pot containing 750 cm3 of potting mix. VT500G canola seeds were subsequently sown on the treated potting mix and allowed to grow at 22° C. with a light/dark photoperiod of 16 h/8 h for 65 days. Plant growth and clubroot symptom development were monitored over the incubation time course.

Plasmodiophora brassicae [1] = assay: Pre-seeding treatment of P. brassicae infested potting mix, VT500G canola then sown; assay type: in vivo; conditions: for plant growth / foliar symptoms of clubroot disease: 35 days post seeding; for early senescence: 60 days post seeding
Experimental: (§3) An isolate of clubroot pathogen Plasmodiophora brassicae was obtained from infested canola fields in central Alberta. The pathogen population from this collection may represent a mixture of pathotypes, but pathotype 3 is expected to be predominant (Peng et al., 2011). The inoculum was propagated using a susceptible canola cv. Westar grown in the infested soil with spores. Fresh clubroot galls were harvested, air dried, and stored at 4° C., and were further used for fresh inoculum preparation. To extract spores, 2-5 g of air-dried galls were soaked in distilled water for a few hours to soften the tissues and then ground in a mortar with pestle. The resulting slurry was filtered through three layers of cheesecloth and the spore concentration was estimated under a microscope. Inoculum concentration of 1.0·10^7 resting spores/ml was used for inoculation.
as §1, §2

Plasmodiophora brassicae [2] = assay: Treatment of canola seedlings: potting mix irrigated with glyphosate solution, then inoculated with P. brassicae spores; assay type: in vivo; conditions: 572 mg/pot glyphosate, 15 days post-inoculation, VT500G canola
Experimental: as §3
Canola plants, cultivar Westar and the glyphosate-resistant transgenic line VT500G of Brassica napus, were used. Plants were grown in a phytotron at 22° C. with a light/dark photoperiod of 16 h/8 h (light intensity 120 μmol m^−2 s^−1). […]

## O=C(O)CNCP(=O)(O)O [glyphosate, N-(phosphonomethyl)glycine]
VT500G canola plants; 572 mg/pot, 12 days post seeding
  chlorosis of leaves: light chlorosis on true leaves
VT500G canola plants; 572 mg/pot, 22 days post seeding
  growth retardation: slightly retarded growth
VT500G canola plants; glyphosate-treated seedlings, early stages
  growth impediment of seedlings: Some growth retardation; also recorded: some growth impediment
Plasmodiophora brassicae [1]; 143 mg/pot
  plant growth / foliar symptoms of clubroot disease: normal growth
  early senescence: appeared less affected, albeit with some signs of early senescence; also recorded: showed an early senescence
Plasmodiophora brassicae [1]; 143 mg/pot, 65 days post seeding
  silique/seed production: Abortions of silique development were frequently observed
Plasmodiophora brassicae [1]; 286 mg/pot
  plant growth / foliar symptoms of clubroot disease: normal growth
  early senescence: did not display early senescence
Plasmodiophora brassicae [1]; 286 mg/pot, 65 days post seeding
  silique/seed production: normal silique/seed production
Plasmodiophora brassicae [1]; 572 mg/pot
  plant growth / foliar symptoms of clubroot disease: normal growth
  early senescence: did not display early senescence
Plasmodiophora brassicae [1]; 572 mg/pot, 65 days post seeding
  silique/seed production: normal silique/seed production
Plasmodiophora brassicae [1]; all glyphosate treatments (143, 286, 572 mg/pot), 65 days post seeding
  plant survival: all glyphosate treated plants had survived
Plasmodiophora brassicae [1]; drench application of glyphosate pesticide solution to inoculated potting mix, glyphosate-resistant canola
  incidence of clubroot disease: reduced the incidence of clubroot disease
Plasmodiophora brassicae [2]
  clubroot development in the root system: prevented visible clubroot development

— patent publication US20150230474A1, “Use of Glyphosate to Control Clubroot Disease” (priority 2014, published 2015)
